Assay results published in ChEMBL document CHEMBL4765394, “From irreversible to reversible covalent inhibitors: Harnessing the andrographolide scaffold for anti-inflammatory action” (Eur J Med Chem, 2020).
Calls of active or inactive are those of the source. The calls are words filed in the database; no cut-off is given here.

What was measured:
[1] = Aqueous stability of compound; type: physicochemical; settings: buffer
RAW264.7 [2] = experiment: Antiinflammatory activity in mouse RAW264.7 cells assessed as inhibition of LPS-induced IL6 release at 5 to 10 uM preincubated for 1 hr followed by LPS stimulation and measured after 24 hrs by ELISA; type: functional, cell-based; settings: dose 5-10 µM, time 25.0 hrs
RAW264.7 [3] = experiment: Antiinflammatory activity in mouse RAW264.7 cells assessed as inhibition of LPS-induced TNFalpha release at 5 to 10 uM preincubated for 1 hr followed by LPS stimulation and measured after 4 hrs by ELISA; type: functional, cell-based; settings: dose 5-10 µM, time 5.0 hrs
RAW-Blue [4] = experiment: Inhibition of LPS-induced NF-kappaB activity in mouse RAW-Blue cells assessed as reduction in SEAP reporter activity at 5 to 20 uM preincubated for 1 hr followed by LPS stimulation and measured after 24 hrs by SEAP reporter gene assay; type: cell-based; settings: dose 5-20 µM, time 25.0 hrs
RAW-Blue [5] = experiment: Inhibition of LPS-induced NF-kappaB activity in mouse RAW-Blue cells assessed as reduction in SEAP reporter activity at 5 to 20 uM preincubated for 1 hr followed by LPS stimulation and measured after 8 hrs by SEAP reporter gene assay; type: cell-based; settings: dose 5-20 µM, time 9.0 hrs
[6] = GSH reactivity assessed as GSH adduct formation by measuring reduction in intracellular GSH level at 20 uM measured after 2 hrs by cell-based monochlorobimane fluorometric method; type: ADME; set-up: scale not given: the % may be the effect or the level left
RAW-Blue [7] = experiment: Inhibition of LPS-induced NF-kappaB activity in mouse RAW-Blue cells assessed as reduction in SEAP reporter activity at 5 to 20 uM preincubated for 1 hr followed by LPS stimulation and measured after 8 to 24 hrs by SEAP reporter gene assay; type: cell-based; settings: dose 5-20 µM, time 25.0 hrs
RAW264.7 [8] = experiment: Cytotoxicity against BSO-treated mouse RAW264.7 cells assessed as reduction cell viability measured after 24 hrs by Celltiter-glo assay; type: cell-based; settings: raw264.7, 24 h, dose 10-20 µM
RAW264.7 [9] = experiment: Cytotoxicity against mouse RAW264.7 cells assessed as reduction cell viability at 5 to 50 uM measured after 24 hrs by Celltiter-glo assay; type: cell-based; settings: raw264.7, 24 h, dose 5-50 µM
RAW264.7 [10] = experiment: Cytotoxicity against mouse RAW264.7 cells assessed as reduction cell viability at 20 uM measured after 24 hrs by Celltiter-glo assay; type: cell-based; settings: raw264.7, 24 h
RAW264.7 [11] = experiment: Antiinflammatory activity in BSO-treated mouse RAW264.7 cells assessed as inhibition of LPS-induced TNFalpha release at 2.5 to 10 uM preincubated for 1 hr followed by LPS stimulation and measured after 4 hrs by ELISA; type: functional, cell-based; settings: dose 2.5-10 µM, time 5.0 hrs
RAW264.7 [12] = experiment: Antiinflammatory activity in 24 hrs NAC-pretreated mouse RAW264.7 cells assessed as inhibition of LPS-induced TNFalpha release at 10 uM preincubated for 1 hr followed by LPS stimulation and measured after 4 hrs by ELISA relative to control; type: functional; settings: time 5 hrs
RAW-Blue [13] = experiment: Activation of NF-kappaB activity in mouse RAW-Blue cells assessed as increase in SEAP reporter activity at 5 to 20 uM measured after 24 hrs by SEAP reporter gene assay; type: cell-based; settings: filed as activator, dose 5-20 µM
[14] = GSH reactivity in PBS assessed as GSH adduct formation by measuring half life by HPLC-MS analysis; type: ADME
RAW264.7 [15] = experiment: Antiinflammatory activity in 4 hrs NAC-pretreated mouse RAW264.7 cells assessed as inhibition of LPS-induced TNFalpha release at 10 uM preincubated for 1 hr followed by LPS stimulation and measured after 4 hrs by ELISA relative to control; type: functional; settings: time 5 hrs
RAW264.7 [16] = experiment: Activation of JNK phosphorylation in mouse RAW264.7 cells at 50 uM measured after 4 hrs by Western blot analysis; type: cell-based; settings: filed as activator
RAW264.7 [17] = experiment: Activation of JNK phosphorylation in BSO-treated mouse RAW264.7 cells at 50 uM measured after 4 hrs by Western blot analysis; settings: filed as activator
RAW-Blue [18] = experiment: Activation of NF-kappaB activity in mouse RAW-Blue cells assessed as increase in SEAP reporter activity at 30 uM measured after 24 hrs in presence of p38 inhibitor SB203580 by SEAP reporter gene assay; type: cell-based
[19] = Cytotoxicity against human L02 cells assessed as reduction in cell viability measured after 24 hrs by Celltiter-glo assay; type: cell-based
[20] = GSH reactivity in PBS assessed as GSH adduct formation measured up to 8 hrs by HPLC-MS analysis; type: ADME; settings: buffer
[21] = Cytotoxicity against HEK293 cells assessed as reduction in cell viability measured after 24 hrs by Celltiter-glo assay; type: cell-based; settings: human
RAW264.7 [22] = experiment: Antiinflammatory activity in 2 hrs NAC-pretreated mouse RAW264.7 cells assessed as inhibition of LPS-induced TNFalpha release at 10 uM preincubated for 1 hr followed by LPS stimulation and measured after 4 hrs by ELISA relative to control; type: functional; settings: time 5 hrs
RAW264.7 [23] = experiment: Cytotoxicity against mouse RAW264.7 cells assessed as reduction cell viability at 5 uM measured after 24 hrs by Celltiter-glo assay; type: cell-based; settings: raw264.7, 24 h
[24] = GSH reactivity in PBS assessed as isomerization measured up to 24 hrs by HPLC-MS analysis; type: ADME; settings: buffer
[25] = target: T1, Nuclear factor NF-kappa-B p105 subunit (Homo sapiens) (UniProt P19838); experiment: Inhibition of DNA binding activity of human NF-kappaB p50 at 200 uM measured after 1 hr by ELISA
T1 sequence (whole entry): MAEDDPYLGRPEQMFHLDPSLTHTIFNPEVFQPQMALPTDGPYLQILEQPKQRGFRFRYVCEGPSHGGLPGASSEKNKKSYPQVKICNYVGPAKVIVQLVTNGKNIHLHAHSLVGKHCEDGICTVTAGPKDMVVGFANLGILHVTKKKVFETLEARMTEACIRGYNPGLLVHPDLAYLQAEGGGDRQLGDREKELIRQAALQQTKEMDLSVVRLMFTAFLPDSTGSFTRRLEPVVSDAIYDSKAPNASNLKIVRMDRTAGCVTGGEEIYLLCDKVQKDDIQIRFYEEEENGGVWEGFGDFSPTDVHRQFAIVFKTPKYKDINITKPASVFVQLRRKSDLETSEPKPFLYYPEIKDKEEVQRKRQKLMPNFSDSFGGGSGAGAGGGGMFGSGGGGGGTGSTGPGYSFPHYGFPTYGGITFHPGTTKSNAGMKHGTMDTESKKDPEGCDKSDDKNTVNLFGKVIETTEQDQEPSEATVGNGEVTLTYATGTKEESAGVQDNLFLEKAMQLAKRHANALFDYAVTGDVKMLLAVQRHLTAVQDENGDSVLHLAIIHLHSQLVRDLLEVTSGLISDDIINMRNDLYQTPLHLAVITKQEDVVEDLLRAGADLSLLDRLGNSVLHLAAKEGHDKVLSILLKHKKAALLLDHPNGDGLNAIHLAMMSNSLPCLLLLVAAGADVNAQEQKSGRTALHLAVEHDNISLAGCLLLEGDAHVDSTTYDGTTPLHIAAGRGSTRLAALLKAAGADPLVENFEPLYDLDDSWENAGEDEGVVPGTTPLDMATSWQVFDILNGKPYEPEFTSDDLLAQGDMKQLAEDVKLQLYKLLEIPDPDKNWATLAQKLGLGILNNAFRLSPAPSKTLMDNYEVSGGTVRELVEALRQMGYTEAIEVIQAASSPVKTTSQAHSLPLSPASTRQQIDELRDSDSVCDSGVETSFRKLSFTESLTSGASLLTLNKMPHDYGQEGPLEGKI

Compound | Stabilty [1] | inhibition (RAW264.7 [2]) | inhibition (RAW264.7 [3]) | other results
C=C1CC[C@@H]2[C@](C)(CO)[C@H](O)CC[C@@]2(C)[C@@H]1CC=C(C#N)C#N | Unstable | – | – | –
C=C(CO)C(=O)OC | – | inactive | inactive | –
C=C1CC[C@@H]2[C@](C)(CO)[C@H](O)CC[C@@]2(C)[C@@H]1C/C=C1/C=COC1=O | Stable | Active | Active | inhibition (RAW-Blue [4]): inactive; inhibition (RAW-Blue [5]): Active; Activity [6]: > 70%
C=C1CC[C@@H]2[C@](C)(CO)[C@H](O)CC[C@@]2(C)[C@@H]1C/C=C1\C(=O)OC[C@H]1O | Stable | – | inactive | inhibition (RAW-Blue [7]): inactive
C=C1CC[C@@H]2[C@](C)(CO)[C@H](O)CC[C@@]2(C)[C@@H]1C/C=C1\CCOC1=O | Stable | inactive | inactive | CC50 (RAW264.7 [8]): > 30 µM
C=C1CC[C@@H]2[C@](C)(CO)[C@H](O)CC[C@@]2(C)[C@@H]1C/C=C/C#N | Stable | inactive | inactive | –
C=C1CC[C@@H]2[C@](C)(CO)[C@H](O)CC[C@@]2(C)[C@@H]1C/C=C1\C(=O)Nc2ccccc21 | Stable | inactive | – | –
C=C1CC[C@@H]2[C@](C)(CO)[C@H](O)CC[C@@]2(C)[C@@H]1C/C=C1\SC(=O)NC1=O | Stable | inactive | – | Activity (RAW264.7 [9]): Non-Toxic
C=C1CC[C@@H]2[C@](C)(CO)[C@H](O)CC[C@@]2(C)[C@@H]1C/C=C1/C(=O)OC[C@H]1O [ANDROGRAPHOLIDE] | Stable | Active | Active | Activity (RAW264.7 [10]): Toxic; inhibition (RAW264.7 [11]): Active; inhibition at 10 µM (RAW264.7 [12]): 62%; Activity (RAW-Blue [13]): Active; t1/2 [14]: 5.46 h; inhibition at 10 µM (RAW264.7 [15]): 30%; Activity (RAW264.7 [16]): Active; Activity (RAW264.7 [17]): Active; Activity (RAW-Blue [18]): inactive; CC50 at 24 h [19]: 14.7 µM; inhibition (RAW-Blue [7]): inactive; CC50 (RAW264.7 [8]): 10 µM; K [20]: 2.44e-05 M⁻¹ s⁻¹; CC50 at 24 h [21]: 26.2 µM; inhibition at 10 µM (RAW264.7 [22]): 17%
C=C1CC[C@@H]2[C@](C)(CO)[C@H](O)CC[C@@]2(C)[C@@H]1C/C=C/C(=O)c1ccccc1 | Stable | Active | Active | Activity (RAW264.7 [23]): Toxic; inhibition (RAW-Blue [4]): Active; t1/2 [14]: 2.12 h; inhibition (RAW-Blue [5]): Active; K [20]: 6.036e-05 M⁻¹ s⁻¹; Drug metabolism [24]: Metabolite_Notdetected
C=C1CC[C@@H]2[C@](C)(CO)[C@H](O)CC[C@@]2(C)[C@@H]1CC=O | Stable | inactive | inactive | –
C=C1CC[C@@H]2[C@](C)(CO)[C@H](O)CC[C@@]2(C)[C@@H]1C/C=C1/CCOC1=O | Stable | inactive | – | –
CC(=O)CCC[C@@H]1[C@@H](C)CC[C@@H]2[C@](C)(CO)[C@H](O)CC[C@]21C | – | – | – | inhibition [25]: inactive
C=C1CC[C@@H]2[C@](C)(CO)[C@H](O)CC[C@@]2(C)[C@@H]1C/C=C1\C(=O)Nc2ccc(F)cc21 | Stable | inactive | – | –
C=C1CC[C@@H]2[C@](C)(CO)[C@H](O)CC[C@@]2(C)[C@@H]1C/C=C/C(=O)OCC | Stable | inactive | inactive | –
C=C1CC[C@@H]2[C@](C)(CO)[C@H](O)CC[C@@]2(C)[C@@H]1C/C=C1\C=COC1=O | Stable | Active | Active | inhibition (RAW-Blue [4]): inactive; Activity (RAW-Blue [13]): Active; t1/2 [14]: 0.05 h; inhibition (RAW-Blue [5]): Active; Activity (RAW-Blue [18]): inactive; Activity [6]: > 70%; K [20]: 0.003539 M⁻¹ s⁻¹
C=C1CC[C@@H]2[C@](C)(CO)[C@H](O)CC[C@@]2(C)[C@@H]1C/C=C1\SC(=S)NC1=O | Stable | inactive | inactive | Activity (RAW264.7 [9]): Non-Toxic
C=C1CC[C@@H]2[C@](C)(CO)[C@H](O)CC[C@@]2(C)[C@@H]1C/C=C1\C[C@H](OC)OC1=O | Stable | inactive | – | –
C=C1CC[C@@H]2[C@](C)(CO)[C@H](O)CC[C@@]2(C)[C@@H]1C/C=C1/C(=O)Nc2ccccc21 | Stable | inactive | inactive | –
C=C1CC[C@@H]2[C@](C)(CO)[C@H](O)CC[C@@]2(C)[C@@H]1/C=C/C1=CCOC1=O | Stable | inactive | inactive | –
C=C1CC[C@@H]2[C@](C)(CO)[C@H](O)CC[C@@]2(C)[C@@H]1C/C=C/C(C)O (some centres not stated) | – | – | – | inhibition [25]: inactive
C=C1CC[C@@H]2[C@](C)(CO)[C@H](O)CC[C@@]2(C)[C@@H]1C/C=C1\NC(=O)NC1=O | Stable | inactive | – | Activity (RAW264.7 [9]): Non-Toxic
C=C1CC[C@@H]2[C@](C)(CO)[C@H](O)CC[C@@]2(C)[C@@H]1C/C=C\C#N | Stable | inactive | – | –
C[C@H]1CC[C@@H]2[C@](C)(CO)[C@H](O)CC[C@@]2(C)[C@@H]1CC[C@@H]1C(=O)OC[C@H]1O | Stable | inactive | inactive | –
C=C1CC[C@@H]2[C@](C)(CO)[C@H](O)CC[C@@]2(C)[C@@H]1C/C=C1\C[C@@H](OC)OC1=O | Stable | inactive | – | –
C=C1CC[C@@H]2[C@](C)(CO)[C@H](O)CC[C@@]2(C)[C@@H]1C/C=C1/C(=O)Nc2ccc(F)cc21 | Stable | inactive | – | –
